Reference: patent US6291671A, “Process for producing drug complexes” (Daiichi Pharmaceutical Co., Ltd., priority 1996, dated 2001)
Structures can show the parent of a compound that is named as a salt. Ends that are not written are not given here. Peptide text beside a SMILES is read from it. * marks the point of attachment. DW‑8089 = (1S,9S)-1-amino-9-ethyl-2,3-dihydro-9-hydroxy-1H,12H-benzo[de]pyrano[3',4':6,7]indolizino[1,2-b]quinoline-10,13(9H,15H)-dione, CC[C@@]1(O)C(=O)OCc2c1cc1n(c2=O)Cc2c-1nc1cccc3c1c2[C@@H](N*)CC3; Exatecan = CC[C@@]1(O)C(=O)OCc2c1cc1n(c2=O)Cc2c-1nc1cc(F)c(C)c3c1c2[C@@H](N*)CC3

Experiments:
[1] = tested on: Meth A tumor-bearing mice; assay: Antitumor activity, Meth A tumor-bearing mice, i.v. every 4 days 4 times; assay type: in vivo, mouse; details: Example 11, every 4 days 4 times
Protocol: (§1) Meth A tumor-bearing mice were prepared (7 mice per group) by subcutaneously transplanting 1×10^6 mouse fibrosarcoma Meth A cells into the right inguinal regions of BALB/c male mice (7-week old). On day 7, the drug complex of Example 9 dissolved in distilled water for injection was injected in the tail vein of the Meth A tumor-bearing mice every 4 days 4 times. On day 21 after the transplantation, tumor masses were excised and weighed to calculate the inhibition rate of tumor growth according to the following equation: inhibition rate of tumor growth (%)=[1-(average tumor weight of the group administered with the test sample/average tumor weight of control group)]×100.

[2] = tested on: Walker 256 tumor-bearing rats; assay: Releasing rate of spacers judged from efficacy of doxorubicin drug complexes or free doxorubicin at tumorous sites; assay type: in vivo, rat; details: for releasing rate of spacer: drug complexes bound with doxorubicin, Walker 256 tumor-bearing rats
Description: Specific examples of the spacer are shown in the following table; however, the spacer used for the method for preparing the drug complexes of the present invention is not limited to those mentioned below, and it can be readily understood that one of ordinary skilled in the art can appropriately choose a spacer so as to achieve an optimum releasing rate of a drug compound. In the table, the left ends of peptide sequences are N-terminuses and the residues of drug compounds are bound to C-terminuses.D-Phe represents a D-phenylalanine residue and the other amino acids represent L-amino acids. The degrees of the releasing rate were judged from the degree of appearance of efficacy of the drug complexes bound with doxorubicin against Walker 256 tumor-bearing rats, or from the free doxorubicin concentration at tumorous sites of Walker 256 tumor-bearing rats.

[3] = tested on: Meth A tumor-bearing mice; assay: Antitumor activity, Meth A tumor-bearing mice, single administration on day 7; assay type: in vivo, mouse; details: for Inhibition rate: calculated based on the drug compound; for antitumor activity (in words) / effective dose-range (in words): single administration, compared to the drug compound, per se
Protocol: as §1
Meth A tumor-bearing mice (6 mice per group) were prepared according to a similar manner to that of Example 11 and the antitumor activity was compared to that obtained by single administration of the drug complexes of Examples 8 and 9 once on day 7.
(§2) Meth A tumor-bearing mice (6 mice per group) were prepared according to a similar manner to that of Example 11 and the antitumor activity of the drug complex of Example 15 was examined by single administration in a similar manner to that of Example 12.
as §2, with “1,” for “11”, “41” for “15”, “in the cases of” for “by”, “12, and its antitumor activity was compared to that of the drug compound, per se.” for “12.”
Meth A tumor-bearing mice (6 mice per group) were prepared according to a similar manner to that of Example 11, and the antitumor activity was examined according to a similar method to that in Example 12 by single administration of the drug complexes of Examples 29, 43, and 44, respectively.

[4] = Example 56 (table 8), 20 mg/kg single
[5] = Example 56 (table 8), 40 mg/kg single
[6] = Example 56 (table 8), 80 mg/kg single
[7] = Example 56 (table 8), 100 mg/kg single

Q: `CC[C@@]1(O)C(=O)OCc2c1cc1n(c2=O)Cc2c-1nc1cc(F)c(C)c3c1c2[C@@H](NC(=O)CNC(=O)[C@H](Cc1ccccc1)NC(=O)CNC(=O)CN)CC3` [H)N-Gly-Gly-Phe-Gly-NH--A, 3'-N-(Gly-Gly-Phe-Gly)-NH--A (A--NH2 =DX-8951) Trifluoroacetic Acid Salt] (H-GGFG-Exatecan) was tested. Which “antitumor activity (in words)” value [1] did it give?
A: not effective

Q: -Ala-Gly- was tested. Which “releasing rate of spacer” value [2] did it give?
A: relatively low releasing rate

Q: Which “releasing rate of spacer” value [2] does the source give for -Gly-Gly- here?
A: low releasing rate

Q: Which “releasing rate of spacer” value [2] does the source give for -Gly-Gly-Gly- here?
A: low releasing rate

Q: Which “releasing rate of spacer” value [2] does the source give for “-Gly-Gly-Gly-Gly-: spacer of drug complexes bound with doxorubicin (GGGG; not fully specified; printed as -Gly-Gly-Gly-Gly-; also: spacer between polysaccharide derivative and drug in drug complex)” here?
A: low releasing rate

Q: Which “releasing rate of spacer” value [2] does the source give for “-Gly-Gly-Gly-Gly-Gly-Gly-: spacer of drug complexes bound with doxorubicin” here?
A: relatively high releasing rate

Q: With “-Gly-Gly-Gly-Phe-: spacer of drug complexes bound with doxorubicin (GGGF; not fully specified; printed as -Gly-Gly-Gly-Phe-; also: spacer between polysaccharide derivative and drug in drug complex)” as the compound, how does the “releasing rate of spacer” value [2] read?
A: relatively low releasing rate

Q: How did the “releasing rate of spacer” value [2] turn out when “-Gly-Gly-Gly-Phe-Gly-: spacer of drug complexes bound with doxorubicin (GGGFG; not fully specified; printed as -Gly-Gly-Gly-Phe-Gly-; also: spacer between polysaccharide derivative and drug in drug complex)” was run?
A: high releasing rate

Q: For “-Gly-Gly-Phe-Gly-: spacer of drug complexes bound with doxorubicin (GGFG; not fully specified; printed as -Gly-Gly-Phe-Gly-; also: spacer between polysaccharide derivative and drug in drug complex)”, which “releasing rate of spacer” value [2] is on record?
A: high releasing rate

Q: What about the “release of the drug compound (in words)” value ([2]; spacer for doxorubicin) of the same compound?
A: can release the drug compound at high concentration in a short time

Q: For “-Gly-Gly-Phe-Phe-: spacer of drug complexes bound with doxorubicin (GGFF; not fully specified; printed as -Gly-Gly-Phe-Phe-; also: spacer between polysaccharide derivative and drug in drug complex)”, which “releasing rate of spacer” value [2] is on record?
A: relatively high releasing rate

Q: For -Gly-Phe-, which “releasing rate of spacer” value [2] is on record?
A: low releasing rate

Q: With “-Gly-Phe-Gly-Gly-: spacer of drug complexes bound with doxorubicin (GFGG; not fully specified; printed as -Gly-Phe-Gly-Gly-; also: spacer between polysaccharide derivative and drug in drug complex)” as the compound, how does the “releasing rate of spacer” value [2] read?
A: high releasing rate

Q: With -Leu-Gly- as the compound, how does the “releasing rate of spacer” value [2] read?
A: high releasing rate

Q: For -Phe-Gly-, which “releasing rate of spacer” value [2] is on record?
A: high releasing rate

Q: How did the “releasing rate of spacer” value [2] turn out when “-Phe-Gly-Gly-Gly-: spacer of drug complexes bound with doxorubicin (FGGG; not fully specified; printed as -Phe-Gly-Gly-Gly-; also: spacer between polysaccharide derivative and drug in drug complex)” was run?
A: high releasing rate

Q: With -Phe-Phe- as the compound, how does the “releasing rate of spacer” value [2] read?
A: relatively low releasing rate

Q: With “-Phe-Phe-Gly-Gly-: spacer of drug complexes bound with doxorubicin (FFGG; not fully specified; printed as -Phe-Phe-Gly-Gly-; also: spacer between polysaccharide derivative and drug in drug complex)” as the compound, how does the “releasing rate of spacer” value [2] read?
A: high releasing rate

Q: How did the “releasing rate of spacer” value [2] turn out when -Pro-Gly- was run?
A: relatively low releasing rate

Q: How did the “releasing rate of spacer” value [2] turn out when -Ser-Gly- was run?
A: low releasing rate

Q: With -Tyr-Gly- as the compound, how does the “releasing rate of spacer” value [2] read?
A: high releasing rate

Q: “Carboxymethyldextran Polyalcohol-Gly-Gly-Gly-Phe-NH--A' (A--NH2 =)X-8951) ({carboxymethyldextran polyalcohol}-GGGF-Exatecan; also: N-terminus linked to carboxymethyldextran polyalcohol, C-terminus amide-linked to drug residue A' (DX-8951)) [Example 43]” was tested. Which Inhibition rate [3, 4] did it give?
A: 75%

Q: And the Inhibition rate [3, 5]?
A: 82%

Q: And the Inhibition rate [3, 6]?
A: 92%

Q: What about the Inhibition rate [3, 7] of the same compound?
A: 94%

Q: What about the “antitumor activity (in words)” value [3] of the same compound?
A: high antitumor activity

Q: What about the “effective dose-range (in words)” value [3] of the same compound?
A: broader effective dose-range

Q: Which Inhibition rate ([3]; Example 12 (Table 3), 5 mg/kg single) does the source give for “Carboxymethyldextran Polyalcohol-Gly-Gly-Gly-Phe-NH--A' (A--NH2 =DX-8951) [Example 8] ({carboxymethyldextran polyalcohol}-GGGF-Exatecan; also: N-terminus linked to carboxymethyldextran polyalcohol, C-terminus amide-linked to drug residue A' (DX-8951))” here?
A: 76%

Q: What about the Inhibition rate ([3]; Example 12 (Table 3), 10 mg/kg single) of the same compound?
A: 85%

Q: What about the “antitumor activity (in words)” value [3] of the same compound?
A: (Polysaccharide derivative)-Gly-Gly-Gly-Phe-NH--A'> the drug compound, per se

Q: “Carboxymethyldextran Polyalcohol-Gly-Gly-Gly-Phe-NH--A' (A--NH2 =DX-8951) [Example 29] ({carboxymethyldextran polyalcohol}-GGGF-Exatecan; also: N-terminus linked to carboxymethyldextran polyalcohol, C-terminus amide-linked to drug residue A' (DX-8951))” was tested. Which Inhibition rate ([3]; Example 56 (table 8), 5 mg/kg single) did it give?
A: 79%

Q: What about the Inhibition rate ([3]; Example 56 (table 8), 10 mg/kg single) of the same compound?
A: 89%

Q: What about the Inhibition rate [3, 4] of the same compound?
A: 99%

Q: And the Inhibition rate ([3]; Example 56 (table 8), 30 mg/kg single)?
A: 99%

Q: What about the “antitumor activity (in words)” value [3] of the same compound?
A: high antitumor activity

Q: And the “effective dose-range (in words)” value [3]?
A: broader effective dose-range

Q: Which results are given for “Carboxymethyldextran Polyalcohol-Gly-Gly-Phe-Gly-NH--A' (A--NH2 =DW-8089) ({carboxymethyldextran polyalcohol}-GGFG-{DW‑8089}; also: N-terminus linked to carboxymethyldextran polyalcohol, C-terminus amide-linked to drug residue A' (DW-8089)) [Example 41]”?
A: Inhibition rate ([3]; Example 55 (table 7), 3.125 mg/kg single): 61%; Inhibition rate ([3]; Example 55 (table 7), 6.25 mg/kg single): 81%; Inhibition rate ([3]; Example 55 (table 7), 12.5 mg/kg single): 95%; Inhibition rate ([3]; Example 55 (table 7), 25 mg/kg single): 99%; antitumor activity (in words) [3]: remarkably enhanced antitumor activity; effective dose-range (in words) [3]: broader effective dose-range

Q: For “α-methylcarboxymethyldextran Polyalcohol-Gly-Gly-Gly-Phe-NH--A' (A--NH2 =DX-8951) [Example 44]”, which Inhibition rate [3, 4] is on record?
A: 75%

Q: What about the Inhibition rate [3, 5] of the same compound?
A: 97%

Q: And the Inhibition rate [3, 6]?
A: 94%

Q: What about the Inhibition rate [3, 7] of the same compound?
A: 96%

Q: What about the “antitumor activity (in words)” value [3] of the same compound?
A: high antitumor activity

Q: What about the “effective dose-range (in words)” value [3] of the same compound?
A: broader effective dose-range
